As usually defined, the half-life is the time needed for the level to fall by half in the phase considered. A high value points to slow decline.

Each structure is given as a SMILES string. Like-named read-outs stand apart in the source and are kept apart here.

The values below come from patent publication US7723320B2, “Use of estrogen compounds to increase libido in women” (Pantarhei Bioscience B.V., priority 2001, dated 2010).

For one data set, the system named is immature rat uterus. Conditions: subcutaneously administered, Holinka et al., cited from earlier work.
In data set [1] the test system is estrogen receptors in the human endometrium. The settings on record: Tseng et al., 1978; cited from earlier work.
For data set [2], the target named is T1, rat uterine cytosol estrogen receptor (Rattus norvegicus, UniProt P06211).
T1 construct: rat uterine cytosol estrogen receptor; host or cells: rat uterus (cytosol / nuclear fraction)
T1 sequence (P06211 1-600): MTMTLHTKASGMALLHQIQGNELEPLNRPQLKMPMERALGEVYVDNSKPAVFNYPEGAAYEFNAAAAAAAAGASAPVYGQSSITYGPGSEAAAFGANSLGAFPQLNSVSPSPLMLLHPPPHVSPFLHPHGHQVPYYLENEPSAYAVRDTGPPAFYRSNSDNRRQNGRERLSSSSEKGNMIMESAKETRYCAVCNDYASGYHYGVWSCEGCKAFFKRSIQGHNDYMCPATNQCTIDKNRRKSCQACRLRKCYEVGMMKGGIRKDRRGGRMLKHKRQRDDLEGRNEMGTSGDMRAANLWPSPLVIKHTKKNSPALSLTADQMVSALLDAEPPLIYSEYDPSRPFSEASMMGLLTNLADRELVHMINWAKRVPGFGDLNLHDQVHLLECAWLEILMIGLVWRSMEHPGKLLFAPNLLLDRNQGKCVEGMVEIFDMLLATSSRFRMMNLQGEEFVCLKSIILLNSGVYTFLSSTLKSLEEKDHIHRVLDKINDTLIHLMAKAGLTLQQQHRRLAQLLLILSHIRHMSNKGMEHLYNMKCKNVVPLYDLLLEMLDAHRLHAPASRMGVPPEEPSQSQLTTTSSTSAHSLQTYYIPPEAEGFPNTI
Conditions: cited from earlier work.

Data set [3] addresses T2, estrogen receptor in the human endometrium (Homo sapiens, UniProt P03372).
T2 construct: estrogen receptors in the human endometrium; host or cells: human endometrium (nuclei)
T2 sequence (P03372 1-595): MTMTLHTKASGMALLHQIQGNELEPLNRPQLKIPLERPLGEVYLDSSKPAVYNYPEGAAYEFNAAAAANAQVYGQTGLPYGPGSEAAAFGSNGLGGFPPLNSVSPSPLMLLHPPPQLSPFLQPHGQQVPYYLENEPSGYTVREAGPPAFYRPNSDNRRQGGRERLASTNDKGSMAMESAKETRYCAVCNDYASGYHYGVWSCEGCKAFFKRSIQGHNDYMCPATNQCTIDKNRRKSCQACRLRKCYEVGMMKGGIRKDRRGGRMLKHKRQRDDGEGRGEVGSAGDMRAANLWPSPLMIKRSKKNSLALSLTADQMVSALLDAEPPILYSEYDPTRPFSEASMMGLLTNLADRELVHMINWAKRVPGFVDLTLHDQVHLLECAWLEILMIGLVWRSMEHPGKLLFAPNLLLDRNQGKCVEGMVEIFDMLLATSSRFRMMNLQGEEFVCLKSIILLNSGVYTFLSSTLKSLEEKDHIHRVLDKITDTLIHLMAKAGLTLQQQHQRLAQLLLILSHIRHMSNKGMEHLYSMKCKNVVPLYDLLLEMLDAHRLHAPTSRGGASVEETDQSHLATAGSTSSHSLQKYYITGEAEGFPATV
Conditions: Tseng et al., 1976; cited from earlier work.

The target in data set [4] is T3, rat uterine nuclear estrogen receptor (Rattus norvegicus, UniProt P06211).
T3 construct: rat uterine cytosol estrogen receptor; host or cells: rat uterus (cytosol / nuclear fraction)
T3 sequence (P06211 1-600): T1 sequence (P06211 1-600)
Conditions: cited from earlier work.

Data set [5] deals with human breast cancer cells (MCF-7). Conditions: MCF-7, long term tissue culture; cited from earlier work.
Data set [6] is described as follows: Single dose po/sc bioavailability and elimination half-life study. The format is in vivo. The settings on record: rat, plasma, female Sprague Dawley rats; for bioavailability: po. As for the experimental part:
To evaluate the oral (po) and subcutaneous (sc) bioavailability of estetrol (E4) and to determine the elimination half-life, single dose studies were performed in female Sprague Dawley rats followed by frequent blood sampling over a 24 hours interval.
Female Sprague Dawley rats were equipped with a permanent silatic heart catheter, as described by Kuipers et al. (1985, Gastroenterology, 88, 403-411). Rats were allowed to recover from surgery for 5 days and were than administered 0.05, 0.5, or 5 mg/kg E4 in 0.5 ml arachis oil. For sc administration, E4 was injected in the neck area using a 1 ml syringe and 20 g needle. For po administration of E4, rats were lightly anaesthesized with halothene/N2O/O2 and E4 was directly applied intragastrically using a plastic stomach intubator. Blood samples were subsequently collected via the heart catheter in heparinized tubes at 0.5, 1, 2, 4, 8 and 24 hours. Erytlrocytes were removed by centrifugation at 5000×g for 10 minutes at 4° C. and blood plasma was stored at −20° C. After thawing the plasma samples, liquid-liquid extraction (hexane/diethylether) was employed to prepare the E4-containing plasma samples for HPLC analysis (Perkin Elmer 200) and tandem mass spectrometry using a PE Sciex 3000 tandem mass spectrometer and APCI interface. With each sample batch, a calibration curve with 6 calibrators was recorded. The calibration curve was calculated using linear regression (correlation coefficient>0.98), which permitted quantitation of plasma concentrations. For each rat plasma, sampled at different time intervals, data were collected.
Plasma E4 concentration data were analysed with “WinNonLin, edition 3.1” and involved pharmacokinetic parameters for Cmax, half-life and AUC0-24.

With `C[C@]12CC[C@@H]3c4ccc(O)cc4CC[C@H]3[C@@H]1[C@@H](O)[C@@H](O)[C@@H]2O` [E4, 1,3,5(10)-estratrien-3,15α,16α,17β-tetrol], the uterotrophic activity entry with immature rat uterus (1979) and in the data set with immature rat uterus (1980) was “very weak uterotrophic activity” each time. For the same molecule, in data set [1], the “relative binding to estrogen receptors, of 17β-estradiol” value is 1.5%. The entries for the “relative binding affinity, of 17β-estradiol (100%)” value in data set [2] and in data set [4] were 0.5% and 0.3%, respectively. Moreover, in data set [3], the “relative binding constant compared to 17β-estradiol (100%)” value was 6.25%. The “agonistic potency relative to 17β-estradiol in in vitro cell proliferation” value in data set [5] is listed as 2%. This molecule gave a half-life in data set [6] (other: subcutaneous and oral, sc and po single dose) of 2 to 3 h. Further, the bioavailability in data set [6] (single dose 5.0 mg/kg, read-out: oral bioavailability relative to sc administered E4) lay within 30 to 60%; in data set [6] (single dose 0.05, 0.5 mg/kg, read-out: oral bioavailability relative to sc administration), 80 to 100%.
